Results: US20130210099A1, “METHOD FOR THE PRODUCTION OF ERYTHRITOL” (ANNIKKI GMBH, priority 2010, published 2013)

T1: Err1 (Trichoderma reesei, UniProt Q0GYU5)
T1 sequence (Q0GYU5 1-331): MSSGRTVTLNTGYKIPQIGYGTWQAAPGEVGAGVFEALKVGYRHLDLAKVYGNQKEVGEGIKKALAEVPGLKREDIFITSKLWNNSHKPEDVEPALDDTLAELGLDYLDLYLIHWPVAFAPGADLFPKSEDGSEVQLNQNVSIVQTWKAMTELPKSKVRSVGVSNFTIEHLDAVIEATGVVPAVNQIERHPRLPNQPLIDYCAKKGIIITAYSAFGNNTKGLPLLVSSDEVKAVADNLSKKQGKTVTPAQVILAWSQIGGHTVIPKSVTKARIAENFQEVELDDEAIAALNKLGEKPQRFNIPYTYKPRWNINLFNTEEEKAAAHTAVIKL

B1: Err1 (Trichoderma reesei) (protein)
chain: T1 sequence (Q0GYU5 1-331)

Experiments:
Err1 = biological target: T1, Err1; assay: Determination of Vmax and Km according to Liepins et al. (2006)
[1] = biological target: T2, GST::err1 fusion proteins (Trichoderma reesei, UniProt Q0GYU5); assay: Enzyme assay measuring NADPH-decrease with different substrates; assay type: biochemical; settings: NADPH decrease at 340 nm; 400 μM NADPH, 10 mM substrate, 30° C., pH 7
T2 construct: made in house; host or cells: E. coli BL21 (DE3) pLysS
Procedure: The following 1 mL assay was performed: 400 μM NADPH (in 10 mM sodium phosphate buffer, pH 7), and 25 μL purified GST::err1 enzyme were mixed in an lmL quartz cuvette and incubated at 30° C. for 1 min. Then adding D-erythrose to a final concentration of 10 mM started the reaction. The decrease of NADPH concentration was measured in a spectrophotometer at 340 nm. As a control, a blank was performed using water instead of D-erythrose.

[2] = biological target: T2, GST::err1 fusion proteins; assay: HPLC analysis of the enzymatic conversion of erythrose; assay type: biochemical; settings: 4 mM NADPH, 5 mM erythrose, 25° C. or 37° C., 2 h
Procedure: The following 1 mL assays have been performed prior to HPLC analysis: Assay 1 comprised 4 mM NADPH (in 10 mM sodium phosphate buffer, pH 7), 25 μL purified GST::err1 enzyme, 5 mM erythrose and was incubated at 25° C. for 2 hours. Assay 2 was performed according to assay 1, but was incubated at 37° C. for 2 h. Both assays were stopped by incubating at 85° C. for 10 min and afterwards were filtered using 0.2 μm filters. As negative control assay 3 was performed like assay 1, but was immediately stopped by incubation at 85° C. for 10 min and assay 4 was performed according to assay 1, but sodium phosphate buffer instead of erythrose was used and it was immediately stopped at 85° C. for 10 min.
Analyses were performed using a Thermo Finnigan Surveyor HPLC instrument (Thermo Fisher Scientific, MA, US). All 10 μL samples were injected onto a Rezex RHM-Monosaccharide column (H+, 8%, 150×7.8 mm; Phenomenex, CA, US). Water was used as the mobile phase and elution was followed at 85° C., applying a flow rate of 0.3 mL/min for 20 min. 1 mM D-Erythrose (Sigma) and erythritol (Sigma) were used as reference substances.

[3] = substrate: O=CC=O; assay: purified protein, by the assay type; settings: other: substrate of Err1
[4] = substrate: O=C[C@H](O)CO; assay: purified protein, by the assay type; settings: other: substrate of Err1

Molecule | activity compared with the other substrates (Err1; higher activity versus substrates with good activity for GLD1) | Km (Err1; substrate of Err1) | Vmax (Err1; substrate of Err1) | Absorbance decrease [1] | enzymatic conversion of erythrose (HPLC) [2] | Km [3] | Vmax [3] | Km [4] | Vmax [4]
O=C[C@H](O)[C@H](O)CO [Erythrose, D-erythrose] | approximately 10 fold | 16 µM | 530 nkat/mg | −83.77 mAbs/min | reduced to erythritol | – | – | – | –
O=CC=O [Glyoxal, glyoxal, reference compound] | – | – | – | −83.28 mAbs/min | – | – | – | – | –
B1 | – | – | – | – | – | 2400 µM | 22.5 µmol/min/mg | 900 µM | 9 µmol/min/mg
